# According to patent US11485728B2, “Small molecules for the treatment of autoimmune diseases and cancer” (Athos Therapeutics, Inc., priority 2020, dated 2022):
# Experiments:
# PAMPA permeability = conditions: 5 hours at RT; for Papp at 5 h, 20 μM: PAMPA
# From the text: Parallel artificial membrane permeability (PAMPA) assay is a non-cell based assay designed to predict in vivo biological membrane permeability of drugs in early stage of drug discovery. […] The Corning Gentest Pre-coated PAMPA plate system was designed by 96-well insert system with a 0.45 μm PVDF (polyvinylidene fluoride) filter plate which has been pre-coated with structured tri-layers of phospholipids (lipid/oil/lipid) and a matched receiver microplate.
# Donor solutions of test compounds (300 μL, 20 μM in PBS/MeOH 90:10) were added to each well of the donor plate. 200 μL of PBS/MeOH 90:10 was added to each well of the acceptor plate. The acceptor plate was coupled with the donor plate and incubated for 5 hours at room temperature (RT) without agitation. In each plate, compounds were tested in triplicate. At the end of the incubation, drug concentration in the initial donor solution, acceptor and the donor wells were determined using LC/MS/MS. A five (5) points standard curve from 0.1 to 1000 nM for each test compound were prepared. Analyte samples were diluted to within standard curve concentration with ACN/H2O 50:50 prior analysis.
# All samples were analyzed by electrospray ionization (ESI) liquid chromatograph/mass spectrometry (LC/MS) system utilizing Sciex 5500 quadropule ion trap (Qtrap) mass spectrometry with Shidmazu Nexera X2 UHPLC. The LC-MS/MS instrument monitored each of the test compound in the study based of their respective mass-to-charge (m/z) transitions and MS parameters. Chromatographic separation was achieved on Phenomenex Luna C18 column (50×2.0 mm, 3 μm particle size) by using a gradient elution: mobile phase A contains 0.1% formic acid in water and mobile phase B contains 0.1% formic acid in acetonitrile; A/B (99:1) from 0 to 1 minutes; to A/B (1:99) from 1 to 4 minutes; A/B (1:99) from 4 to 8 minutes; to A/B (99:1) from 8 to 8.20 minutes; A/B (99:1) from 8.2 to 9 minutes. The flow rate was 0.4 mL/min and the column temperature was maintained at 35° C. and autosampler temperature at 4° C. For detection, the electrospray ionization operated in the positive mode using multiple reaction monitoring (MRM).
# Data acquisition, and peak integrations were obtained by Analyst® Version 1.7.1 (Sciex) operating with Windows® (Microsoft). The standard curve regressions and sample concentrations were generated and calculated by Analyst®. Concentrations in the sample solutions were determined based on the measured peak area ratios from the response of the analyte to the internal standard with reference to the standard calibration curve. All sample calculations were calculated using a linear regression with 1/x^2 weighting (where x is the concentration of given calibration standard level).
# Permeability of the test compounds was calculated using the following formula:
# The permeability of compounds was evaluated with the parallel artificial membrane permeation assay (PAMPA) as an in vivo model of passive diffusion across a porous filter coated with a lipid/oil/lipid tri-layer artificial membrane. […] Donor solutions of test compounds (300 μL, 20 μM in PBS/MeOH 90:10) were added to each well of the donor plate. 200 μL of PBS/MeOH 90:10 was added to each well of the acceptor plate. The acceptor plate was coupled with the donor plate and incubated for 5 hours at room temperature (RT) without agitation. In each plate, compounds were tested in triplicate. At the end of the incubation, drug concentration in the initial donor solution, acceptor and the donor wells were determined using LC/MS/MS. Permeability of test compounds was calculated based on the formula described in the General Procedures above. The PAMPA permeability classification criteria are categorized into three (3) classes with a high (Pe≥1.5×10−6 cm/s), intermediate (5.5×10−8<Pe<1.5×10−6 cm/s), and low (Pe<5.5×10−8 cm/s) permeability.
# [1] = tested on: CaCo-2 intestinal epithelial cells; assay: Transepithelial resistance (TEER) of CaCo-2 cells exposed to TNFα and IFNγ; type: cell-based; conditions: CaCo-2; TNFα along with compounds
# Experimental: The intestinal epithelial barrier plays a central role in the pathophysiology of multiple chronic inflammatory and autoimmune diseases. Intestinal epithelial cells provide a physical barrier that interacts with immune cells and protects internal cavities from mucosal bacterial and antigen intrusion. Intestinal inflammation during IBD is associated with disruption of this barrier and cytokines like TNFα play important roles.
# At confluence TEER is measured and TNFα along with compounds are added as described above. Compound-induced TEER is determined after correction with measurement prior to treatment.
# [2] = tested on: C57BL/6 mice with DSS colitis; assay: DSS colitis in C57BL/6 mice; type: in vivo; conditions: 25 mg/kg PO daily; day twelve
# Experimental: Dextran sodium sulfate (DSS) was added to the water 24 hrs after compound administration and weight was measured daily.
# C57BL/6 mice (20-22 grams) were fed ad lib and assigned to 4 different groups (n=8/group). […] A control group received vehicle alone. After 24 hrs, mice were weighed and DSS was added to their drinking water. Mice were then treated with the test compounds and weighed daily and the DSS water was replenished every 72 hrs for 5 days, at which point, it was replaced by regular drinking water. Mice were sacrificed on day twelve and clinical scored was assessed. Intestinal tissue for and blood were also collected. Tissues were either flash frozen and kept in −80° C. for RNA and protein isolation or placed in 10% formalin solution for future histological analysis. Blood was spun at 5K rpm for 5 min and serum was collected and kept at −20° C. for multiplex cytokine analysis.
# DSS colitis mouse model: C57BL/6 mice (20-22 grains) are fed ad lib and assigned to different groups (n=8/group). […] A control group receives vehicle alone. After 24 h, mice are weighed and DSS is added to their drinking water. Mice are then treated with the test compounds and weighed daily and the DSS water is replenished every 72 liars for 5 days, at which point, it is replaced by regular drinking water. Mice are sacrificed on day twelve and clinical scored was assessed. Intestinal tissue for and blood are also collected. Tissues are either flash frozen and kept in −80° C. for RNA and protein isolation or placed in 10% formalin solution for future histological analysis.
# [3] = PAMPA permeability Classification, 20 μM donor
# [4] = Permeability, Pe, 20 μM donor in PBS/MeOH 90:10
Molecule,"Permeability, Pe (PAMPA permeability; 20 μM donor in PBS/MeOH 90:10)",TEER [1],DSS Efficacy [2],"Papp at 5 h, 20 μM (PAMPA permeability; [3])","Papp at 5 h, 20 μM (PAMPA permeability; [4])"
"4-(4-((1-cyclopropylpiperidin-4-yl)amino)-6-methoxy-7-(3-(pyrrolidin-1-yl)propoxy)quinazolin-2-yl)thiomorpholine 1,1-dioxide [Compound 405, reference compound]",1.01e-07 cm/s,,,,
"COc1cc2c(N[C@@H]3CCCOC3)nc(N3CCC(F)(F)CC3)nc2cc1OCCCN1CCCC1 [Compound 12, (R)-2-(4,4-difluoropiperidin-1-yl)-6-methoxy-7-(3-(pyrrolidin-1-yl)propoxy)-N-(tetrahydro-2H-pyran-3-yl)quinazolin-4-amine]",,++,++,,
"COc1cc2c(NC3CCCOC3)nc(N3CCC(F)(F)CC3)nc2cc1OCCCN1CCCC1 (centres unmarked) [Compound 14, 2-(4,4-difluoropiperidin-1-yl)-6-methoxy-7-(3-(pyrrolidin-1-yl)propoxy)-N-(tetrahydro-2H-pyran-3-yl)quinazolin-4-amine]",,+,++,,
"COc1cc2c(NC3CCCS(=O)(=O)C3)nc(N3CCC(F)(F)CC3)nc2cc1OCCCN1CCCC1 (centres unmarked) [Compound 15, 3-((2-(4,4-difluoropiperidin-1-yl)-6-methoxy-7-(3-(pyrrolidin-1-yl)propoxy)quinazolin-4-yl)amino)tetrahydro-2H-thiopyran 1,1-dioxide]",,++,+,,
"COc1cc2c(NCN3CCOCC3)nc(N3CCC(F)(F)CC3)nc2cc1OCCCN1CCCC1 [Compound 17, 2-(4,4-difluoropiperidin-1-yl)-6-methoxy-N-(morpholinomethyl)-7-(3-(pyrrolidin-1-yl)propoxy)quinazolin-4-amine]",,+,+,,
"COc1cc2c(NCCCOC(C)C)nc(N3CCC(F)(F)CC3)nc2cc1OCCCN1CCCC1 [Compound 21, 2-(4,4-difluoropiperidin-1-yl)-N-(3-isopropoxypropyl)-6-methoxy-7-(3-(pyrrolidin-1-yl)propoxy)quinazolin-4-amine]",,−,+,,
"COc1cc2c(N[C@]3(N(C)C)C[C@@H](C)O[C@@H](C)C3)nc(N3CCC(F)(F)CC3)nc2cc1OCCCN1CCCC1 [Compound 25, (2R,4r,6S)—N-(2-(4,4-difluoropiperidin-1-yl)-6-methoxy-7-(3-(pyrrolidin-1-yl)propoxy)quinazolin-4-yl)-N′,N′,2,6-tetramethyltetrahydro-4H-pyran-4,4-diamine]",,+,+,,
"COc1cc2c(Nc3ccccn3)nc(N3CCC(F)(F)CC3)nc2cc1OCCCN1CCCC1 [Compound 34, 2-(4,4-difluoropiperidin-1-yl)-6-methoxy-N-(pyridin-2-yl)-7-(3-(pyrrolidin-1-yl)propoxy)quinazolin-4-amine]",,−,−,,
"COc1cc2c(NCC#N)nc(N3CCC(F)(F)CC3)nc2cc1OCCCN1CCCC1 [Compound 49, 2-((2-(4,4-difluoropiperidin-1-yl)-6-methoxy-7-(3-(pyrrolidin-1-yl)propoxy)quinazolin-4-yl)amino)acetonitrile]",,−,−,,
"COc1cc2c(NCO)nc(N3CCC(F)(F)CC3)nc2cc1OCCCN1CCCC1 [Compound 61, ((2-(4,4-difluoropiperidin-1-yl)-6-methoxy-7-(3-(pyrrolidin-1-yl)propoxy)quinazolin-4-yl)amino)methanol]",,+,+,,
"COc1cc2c(NC3CCS(=O)(=O)CC3)nc(N3CCC3)nc2cc1OCCCN1CCCC1 [Compound 81, 4-((2-(azetidin-1-yl)-6-methoxy-7-(3-(pyrrolidin-1-yl)propoxy)quinazolin-4-yl)amino)tetrahydro-2H-thiopyran 1,1-dioxide]",,+,++,,
"COc1cc2c(NC3CCS(=O)(=O)CC3)nc(C3CC3)nc2cc1OCCCN1CCCC1 [Compound 99, 4-((2-cyclopropyl-6-methoxy-7-(3-(pyrrolidin-1-yl)propoxy)quinazolin-4-yl)amino)tetrahydro-2H-thiopyran 1,1-dioxide]",,++,++,,
COc1cc2c(NC3CCS(=O)(=O)CC3)nc(SC(C)C)nc2cc1OCCCN1CCCC1 [Compound 105],,+,+,,
COc1cc2c(NC3CCCS(=O)(=O)C3)nc(N3CCC3)nc2cc1OCCCN(C)C (centres unmarked) [Compound 137],,+,+,,
"COc1cc2c(NC3CCOCC3)nc(N3CCCCC3)nc2cc1OCCCN1CCCC1 [Compound 173, 6-methoxy-2-(piperidin-1-yl)-7-(3-(pyrrolidin-1-yl)propoxy)-N-(tetrahydro-2H-pyran-4-yl)quinazolin-4-amine]",,++,++,,
"COc1cc2c(NC3CCOCC3)nc(-c3ccc(C)o3)nc2cc1OCCCN1CCCC1 [Compound 180, 6-methoxy-2-(5-methylfuran-2-yl)-7-(3-(pyrrolidin-1-yl)propoxy)-N-(tetrahydro-2H-pyran-4-yl)quinazolin-4-amine]",,++,++,,
COc1cc2c(NCN3CCNCC3)nc(-c3cnc(C)s3)nc2cc1OCCCN1CCCC1 [Compound 213],,+,+,,
COc1cc2c(NC3CCOCC3)nc(N3CCCC3)nc2cc1C#CCN1CCCC1 [Compound 250],,++,++,,
COc1cc2c(NC3CCS(=O)(=O)CC3)nc(N3CCCC3)nc2cc1C#CCN1CCCC1 [Compound 254],,+,+,,
"COc1cc2c(NC3CCN(C(C)C)CC3)nc(N3CCCN(C)CC3)nc2cc1OCCCN1CCCCC1 [Compound 403, reference compound]",,,,< 0.055 ×10⁻⁶ cm/s,0.0096 ×10⁻⁶ cm/s
"COc1cc2c(NC3CCN(C(C)C)CC3)nc(N3CCOCC3)nc2cc1OCCCN1CCCC1 [Compound 404, reference compound]",,,,< 0.055 ×10⁻⁶ cm/s,0.00624 ×10⁻⁶ cm/s
